We go through 1 molecule from ChEMBL document CHEMBL5728291, “Pyrazole MAGL inhibitors” (2021).

The target in the assay is T1, Monoglyceride lipase (Homo sapiens, UniProt Q99685).
T1 sequence (Q99685 whole entry): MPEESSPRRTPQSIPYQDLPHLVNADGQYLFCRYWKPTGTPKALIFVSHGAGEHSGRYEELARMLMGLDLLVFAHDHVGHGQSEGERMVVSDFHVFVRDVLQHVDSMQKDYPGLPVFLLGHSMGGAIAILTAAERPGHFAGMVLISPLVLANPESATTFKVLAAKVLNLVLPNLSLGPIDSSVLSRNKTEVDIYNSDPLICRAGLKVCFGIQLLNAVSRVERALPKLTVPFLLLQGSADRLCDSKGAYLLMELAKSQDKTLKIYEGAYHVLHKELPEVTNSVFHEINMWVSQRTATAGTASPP
As to the kind of experiment: In Vitro Competitive Activity-Based Protein Profiling: Proteomes (mouse brain membrane fraction for mouse assays; human prefrontal cortex membrane fractions for human assays) (50 mL, 1.0 mg/mL total protein concentration) were preincubated with varying concentrations of inhibitors at 37° C. After 30 min, FP-Rh (1.0 mL, 50 mM in DMSO) was added and the mixture was incubated for another 30 min at 37° C.

Each structure is given as a SMILES string. A value given as a limit tells only on which side of the number the result lay.

One may read the IC50 as the concentration needed to halve the response being measured.

On to `O=C(O)c1ccn(C(=O)N2C[C@H]3C[C@H](Oc4cc(Cl)ccc4C(F)(F)F)C[C@H]3C2)n1`, for which the IC50 is less than 0.1 µM.
